Where “and” joins values, the source holds several entries; their conditions need not be identical. Equal values may be shown once. Where a name gives a salt, the structure may show the parent alone.
Key:
[1] = system: GBM8 human glioblastoma cells; assay: GBM8 viability assay (Cell Titer Glo); type: cell-based; conditions: 72 h, Table 1, 3 days incubation, luminescence
In short: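 Patient-derived GBM4 and GBM8 neurosphere cells, 4000 per well in EGF/bFGF/heparin-supplemented NeuroCult medium, were exposed to compound (added in 1% DMSO solution) for 3 days at 37° C. Growth was read by CellTiter-Glo luminescence versus DMSO wells, and IC50s came from 4-parameter fits of serial dilutions.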

[2] = system: Human GBM8 glioblastoma flank tumor; assay: Tumor growth inhibition in mouse flank tumor model, GBM8; type: in vivo; conditions: NSG mice; for Compound + Temozolomide + radiation (median TTE): combined with temozolomide and radiation; for Compound (median TTE): compound alone
Method: (§1) The animals were fed ad libitum water (reverse osmosis, 1 ppm Cl) and NIH 31 Modified and Irradiated Lab Diet® consisting of 18.0% crude protein. 5.0% crude fat, and 5.0% crude fiber. The mice were housed on irradiated Enrich-o'Cobs™ bedding in static microisolators on a 12-hour light cycle at 20-22° C. (68-72° F.) and 40-60% humidity.
(§2) Human GBM4 or GBM8 glioblastoma cell lines were maintained in Complete NeuroCult Proliferation Medium containing 20 ng/mL EGF, 10 ng/mL bFGF and 2 μg/mL Heparin. The cells were cultured in ultra low attachment T75 flask (Corning REF-3814) and the resulting neurospheres were dissociated every 4-6 days using the NeuroCult Chemical Dissociation kit (Stemcell Technologies Cat #05707). Cell cultures were maintained in tissue culture flasks in a humidified incubator at 37° C., in an atmosphere of 5% CO2 and 95% air. Cell samples were collected one passage prior to cell implant and preserved in freezing media.
(§3) Cells used for implantation were harvested during log phase growth and resuspended in cold PBS containing in 50% Matrigel™ (BD Biosciences). Tumor growth was initiated on Day 1 by subcutaneous injection of GBM4 cells into the right flank of each mouse with 1×10^7 tumor cells (0.1 mL cell suspension) and tumor growth was monitored in four groups (n=8) beginning on Day 12. Groups for treatment included group 1 (vehicle), group 2 (test Olig2 inhibitor), group 3 (treatment with temozolomide and radiation) and group 4 (test Olig2 inhibitor combined with temozolomide and radiation). The tumors were measured with a caliper in two dimensions to monitor size. Tumor size was calculated using the formula. Tumor Volume (mm^3)=w^2×½: where w=width and l=length, in mm, of a tumor. Tumor weight may be estimated with the assumption that 1 mg is equivalent to 1 mm^3 of tumor volume Tumors were measured with a caliper twice weekly for the duration of the study Temozolomide (Merck & Co., Lot No. L046487) was administered orally at doses of 5 mg/kg or 10 mg/Kg). Radiation was adminstered with a Faxitron model CP-160 X-ray system. Each animal was immobilized in a live restrainer. Therapy was administered for 1.3 min at 160 KV and 6.0 mA, providing a dose of 1 gray (Gy) for each animal.
The study endpoint was a tumor volume of 2000 mm^3 or Day 152, whichever came first. Each animal was euthanized for tumor progression (TP) when its tumor reached the volume endpoint. The time to endpoint (TTE) for each animal was calculated with the following equation: […]
The data set is comprised of the first observation that exceeded the study endpoint volume and the three consecutive observations that immediately preceded the attainment of the endpoint volume. […] In instances in which the log-transformed calculated TTE preceded the day prior to reaching endpoint or exceeded the day of reaching tumor volume endpoint, a linear interpolation was performed to approximate the TTE. Any animal determined to have died from treatment-related (TR) causes was assigned a TTE value equal to the day of death. […]
Treatment outcome was evaluated from tumor growth delay (TGD), which was defined as the increase in the median TTE for a treatment group compared to the control group: TGD=T−C, expressed in days, or as a percentage of the median TTE of the control group: TGD(%)=T−C/C×100 • T=median TTE for a treatment group, • C=median TTE for the control group.

[3] = system: G06 patient-derived glioblastoma cells, intracranial; assay: Survival in orthotopic glioblastoma mouse model, G06; type: in vivo; conditions: athymic nude mice, oral daily from day 4, percent increase of median versus vehicle
Text: (§4) Patient-derived xenograft samples were used in this study as a more faithful representation of human glioblastoma compared to immortalized cell lines. The maintenance of patient-derived xenografts exclusively by serial passage in mice has been advocated as a means to faithfully preserve the genetic features of the original tumors. Tumor integrity is periodically confirmed by short tandem repeat assessment. These methods were used to obtain cell suspensions of G06 cells for use in vivo. Briefly, short-term cultured cells were injected into the flank of athymic nude mice (Nu/Nu: Envigo). Tumors grown in these mice were harvested and cultured to afford cell suspension for viability studies. Mice with tumors 1-1.5 cm^3 were euthanized using CO2. Tumors were swabbed with Betadine (Carefusion #29906-016) and excised with a sterile scalpel. The tumor sample was placed in a culture plate and broken up with a sterile syringe. […] The pellets were resuspended in Stem Cell Media to a concentration of […] as measured by a hemocytometer.
(§5) G06 or cultured GBM8 cells (3×10^5, 3 μL), were injected intracranially into anesthetized female athymic nude mice (Nu/Nu: Envigo). […] Animal counts and body weight were monitored daily. Survival improvement was measured as a percent increase of the median for drug treatment versus vehicle.

GBM8 cells, intracranial = assay: Survival in orthotopic glioblastoma mouse model, GBM8; type: in vivo; conditions: athymic nude mice, oral daily from day 4, percent increase of median versus vehicle
Text: as §4, §5

[4] = Solubility of compound 174 in DI water; type: physicochemical; conditions: thermodynamic from solid, 2 determinations, read-out: Estimated solubility
Method: Into a 1 dram vial was added a sample of compound 174. DI water was added until the solid was fully dissolved. Solubility was estimated from the amount of solid per mL of water added. Estimated solubility ˜30 mg/mL (2 determinations).

[5] = system: GBM4 human glioblastoma cells; assay: GBM4 viability assay (Cell Titer Glo); type: cell-based; conditions: Table 3, GBM4 cells, read-out: GBM4 IC50 (Cytotoxicity)
Method: Cell culture medium was prepared from a NSA proliferation kit (Neurocult) and NeuroCult supplements (Stemcell Tech Cat. #05751) and treated with 20 μL of 10 μg/mL rh EGF, 10 μL of 10 μg/mL rh bFGF and 10 μL of 0.2% Heparin. In this medium, human glioblastoma cells were cultured in ultra-low attachment tissue culture flasks until 1×10^6 cells ml was achieved (GBM4 and GBM8 are distinct neurosphere cell cultures derived from these human patient tissues). GBM4 and GBM8 cells were dissociated and 10 mL of media containing 4000 human glioblastoma cells per 90 μL were transferred to an ultra-low binding 96-well plate and incubated at 37° C. overnight. On the following day, 10 μL of a 1% DMSO solution of test compound in assay medium was added to wells containing the cell suspension and the mixture incubated at 37° C. for 3 days. At this time, the plate was removed from the incubator and allowed to reach room temperature. After about 30 minutes, 50 μL of Cell Titer Glo solution was added to each well and the plate shaken for 1 minute at low speed. After 10 minutes luminescence was recorded using a Tecan Safire2 reader.
Reduction in luminescence compared to DMSO only control wells was used to determine the percentage inhibition of cell growth. IC50s were calculated using the % inhibition of luminescence for serial dilutions of compounds fitted to a 4-parameter fit within the Prism (San Diego) curve fitting program. Tables 1 (compounds 3-188) and 2 (compounds 190-212) show the GBM4 IC50 and GBM8 IC50 for compounds described herein.

[6] = system: Human GBM4 glioblastoma flank tumor; assay: Tumor growth inhibition in mouse flank tumor model, GBM4; type: in vivo; conditions: NSG mice
Method: as §1, §2
as §3, with “Tumor Volume (mm^3)=w^2×½: where w=width and l=length, in mm, of a tumor.” left out, “Radiation was adminstered with a Faxitron model CP-160 X-ray system. Each animal was immobilized in a live restrainer. Therapy was administered for 1.3 min at 160 KV and 6.0 mA, providing a dose of 1 gray (Gy) for each animal.” left out
The study endpoint was a tumor volume of 2000 mm^3 or Day 152, whichever came first. […] The time to endpoint (TTE) for each animal was calculated with the following equation: […]

[7] = temozolomide orally plus radiation 1 Gy

Q: For `Cc1cc(N)nc(NC(=O)Nc2ccc(OC(F)(F)F)cc2)n1` [Compound 176, 1-(4-amino-6-methylpyrimidin-2-yl)-3-(4-(trifluoromethoxy)-phenyl)urea], which IC50 [1] is on record?
A: < 500 nM

Q: And the “Compound + Temozolomide + radiation (median TTE)” value [2]?
A: 127.9 days

Q: What about the “Compound (median TTE)” value [2] of the same compound?
A: 56.4 days

Q: And the “G06: Estimated Median Survival Benefit (%)” value [3]?
A: 46%

Q: What about the “GBM8: Estimated Median Survival Benefit (%)” value (GBM8 cells, intracranial) of the same compound?
A: 72%

Q: Which results are given for `Cc1cc(NCCCN(C)C)nc(NC(=O)Nc2ccc(Cl)c(Cl)c2)n1` [Compound 174, 1-(3,4-dichlorophenyl)-3-(4-((3-(dimethylamino)propyl)amino)-6-methylpyrimidin-2-yl)urea dimethanesulfonic acid salt]?
A: solubility [4]: ~30 mg/mL; IC50 [5]: 240 nM; IC50 [1]: < 500 nM; Compound + Temozolomide + radiation (median TTE) ([6]; combined with temozolomide and radiation): 152.0 days; Compound (median TTE) ([6]; compound alone, endpoint 2000 mm^3 or Day 152): 73.0 days; Compound + Temozolomide + radiation (median TTE) [2]: >140.0 days; Compound (median TTE) [2]: 61.3 days; G06: Estimated Median Survival Benefit (%) [3]: 54%; GBM8: Estimated Median Survival Benefit (%) (GBM8 cells, intracranial): 48%

Q: For `Cn1nnc2c(C(N)=O)ncn2c1=O` [Temozolomide, reference compound], which “Temozolomide + radiation (median TTE)” value [6, 7] is on record?
A: 116.3 days

Q: What about the “Temozolomide + radiation (median TTE)” value [2, 7] of the same compound?
A: 86.2 days and 78 days
